Legend:
Assay type in all cases: in vivo
rice = test: Test Example 4: effect on crop by soil treatment (symbol b); details: for b: directly sowed rice plant, effect on crop grade: application herbicide amount 320 g/ha
In short: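 Sterilized diluvial soil, spot sowing, ~1.5 cm soil cover; greenhouse 25–30° C.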

[1] = tested on: Echinochloa crus-galli var. crus-galli; test: Test Example 4: herbicidal effect by soil treatment (symbol H)
In short: (§1)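 Seeds were sown in sterilized diluvial soil, covered with about 1.5 cm of soil, and the soil surface was sprayed with a water-diluted emulsion of the compound at a predetermined rate. Plants grew in a greenhouse at 25° C. to 30° C.; effects were scored visually 3 weeks after application.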

Lolium multiflorum Lam. [2] = test: Test Example 4: herbicidal effect by soil treatment (symbol K)
In short: as §1

Veronica persica = test: Test Example 5: herbicidal effect by foliage application, plastic box (symbol R); details: 320 g/ha, 3 weeks after application
In short: (§2)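 Leaf-applied emulsion, water-diluted to a preset herbicide dose, on two-week-old seedlings raised in a 25° C. to 30° C. greenhouse; injury rated at 3 weeks using earlier criteria.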

Setaria viridis = test: Test Example 5: herbicidal effect by foliage application, plastic box (symbol G); details: 320 g/ha, 3 weeks after application
In short: as §2

Galium spurium = test: Test Example 4: herbicidal effect by soil treatment (symbol Q)
In short: as §1

[3] = tested on: Echinochloa crus-galli var. crus-galli; test: Test Example 3: herbicidal effect by foliage application, Wagner pot (symbol H); details: application herbicide amount 320 g/ha
In short: (§3)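 Post-emergence, paddy-type test: seedlings 14 d old in shallow-flooded (0.1–0.5 cm) alluvial soil, 25–30 °C greenhouse. Emulsion diluted to target rate, sprayed on leaves. Read-out: visual effect on each species at 3 weeks, per set criteria.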

rice plant = test: Test Example 5: effect on crop by foliage application, plastic box (symbol b); details: 320 g/ha, 3 weeks after application
In short: (§4)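 Box culture: sterile diluvial soil, seeds spot-sown, ~1.5 cm cover, raised under glass at 25–30° C.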

Scirpus juncoides = test: Test Example 2: herbicidal activity, application during weed generation in submerged conditions (symbol B); details: Table 23; application herbicide amount 320 g/ha; grade 0-5 by criteria of Test Example 1
In short: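 Steps: fill pots with alluvial soil; add water to 4 cm depth; co-sow the three weeds; grow at 25° C. to 30° C. under glass; at 1–2 leaves, dose the floodwater with diluted emulsion; rate damage visually after 3 weeks.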

Avena fatua = test: Test Example 5: herbicidal effect by foliage application, plastic box (symbol I); details: 320 g/ha, 3 weeks after application
In short: as §2

Alopecurus myosuroides = test: Test Example 5: herbicidal effect by foliage application, plastic box (symbol J); details: 320 g/ha, 3 weeks after application
In short: as §2

Stellaria media = test: Test Example 5: herbicidal effect by foliage application, plastic box (symbol P); details: 320 g/ha, 3 weeks after application
In short: as §2

Apera spica-venti = test: Test Example 4: herbicidal effect by soil treatment (symbol L)
In short: as §1

wheat = test: Test Example 5: effect on crop by foliage application, plastic box (symbol e); details: 320 g/ha, 3 weeks after application
In short: as §4

corn = test: Test Example 4: effect on crop by soil treatment (symbol c); details: for c: corn, effect on crop grade: application herbicide amount 320 g/ha
In short: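 Diluvial soil (sterilized) in boxes; seeds placed spot-wise alongside weed species; ~1.5 cm covering soil. Greenhouse, 25–30° C.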

Lolium multiflorum Lam. [4] = test: Test Example 5: herbicidal effect by foliage application, plastic box (symbol K); details: 320 g/ha, 3 weeks after application
In short: as §2

Cyperus difformis = test: Test Example 3: herbicidal effect by foliage application, Wagner pot (symbol E); details: application herbicide amount 320 g/ha
In short: as §3

[5] = application herbicide amount 320 g/ha

SMILES	herbicidal effect on H (Echinochloa crus-galli var. crus-galli), grade 0-5 [3]	Herbicidal effect grade, B: Scirpus juncoides (Scirpus juncoides)	b: directly sowed rice plant, effect on crop grade (rice)	H: Echinochloa crus-galli var. crus-galli, herbicidal effect grade [1, 5]	K: Lolium multiflorum Lam., herbicidal effect grade (Lolium multiflorum Lam. [2]; [5])	R: Veronica persica, herbicidal effect grade (Veronica persica)	G: Setaria viridis, herbicidal effect grade (Setaria viridis)	Q: Galium spurium, herbicidal effect grade (Galium spurium; [5])	b: directly sowed rice plant, effect on crop grade (rice plant)	herbicidal effect on E, grade 0-5 (Cyperus difformis)	I: Avena fatua, herbicidal effect grade (Avena fatua)	J: Alopecurus myosuroides, herbicidal effect grade (Alopecurus myosuroides)	P: Stellaria media, herbicidal effect grade (Stellaria media)	L: Apera spica-venti, herbicidal effect grade (Apera spica-venti; [5])	e: wheat, effect on crop grade (wheat)	c: corn, effect on crop grade (corn)	K: Lolium multiflorum Lam., herbicidal effect grade (Lolium multiflorum Lam. [4])	also measured
COCCOC(=O)OC1=C(c2c(C)cc(C)cc2C)C(=O)C(CC(C)=NOC)C1 (stereo not shown) [1-147]	5 (Herbicidal ratio of 90% or more (almost completely withered))	5 (Herbicidal ratio of 90% or more (almost completely withered))																b: directly sowed rice plant, effect grade on crop (rice; 320 g/ha): 5 (Herbicidal ratio of 90% or more (almost completely withered)); H: Echinochloa crus-galli var. crus-galli, herbicidal effect grade ([1]; 320 g/ha): 5 (Herbicidal ratio of 90% or more (almost completely withered)); K: Lolium multiflorum Lam., herbicidal effect grade (Lolium multiflorum Lam. [2]; 320 g/ha): 5 (Herbicidal ratio of 90% or more (almost completely withered)); R: Veronica persica, herbicidal effect (criteria 0-5) (Veronica persica): 4 (Herbicidal ratio of 70% or higher and lower than 90%); G: Setaria viridis, herbicidal effect (criteria 0-5) (Setaria viridis): 5 (Herbicidal ratio of 90% or more (almost completely withered)); Q: Galium spurium, herbicidal effect grade (Galium spurium; 320 g/ha): 0 (Herbicidal ratio of 5% or lower (almost no effect)); b: directly sowed rice plant, effect on crop (criteria 0-5) (rice plant): 5 (Herbicidal ratio of 90% or more (almost completely withered)); I: Avena fatua, herbicidal effect (criteria 0-5) (Avena fatua): 5 (Herbicidal ratio of 90% or more (almost completely withered)); J: Alopecurus myosuroides, herbicidal effect (criteria 0-5) (Alopecurus myosuroides): 5 (Herbicidal ratio of 90% or more (almost completely withered)); P: Stellaria media, herbicidal effect (criteria 0-5) (Stellaria media): 3 (Herbicidal ratio of 40% or higher and lower than 70%); L: Apera spica-venti, herbicidal effect grade (Apera spica-venti; 320 g/ha): 5 (Herbicidal ratio of 90% or more (almost completely withered)); e: wheat, effect on crop (criteria 0-5) (wheat): 5 (Herbicidal ratio of 90% or more (almost completely withered)); c: corn, effect grade on crop (corn; 320 g/ha): 5 (Herbicidal ratio of 90% or more (almost completely withered)); K: Lolium multiflorum Lam., herbicidal effect (criteria 0-5) (Lolium multiflorum Lam. [4]): 5 (Herbicidal ratio of 90% or more (almost completely withered))
CON=C(C)CC1CC(O)=C(c2c(C)cc(C(C)=O)cc2C)C1=O (stereo not shown) [6-026]	5 (Herbicidal ratio of 90% or more (almost completely withered))		5 (Herbicidal ratio of 90% or more (almost completely withered))	1 (Herbicidal ratio of 5% or higher and lower than 20%)	1 (Herbicidal ratio of 5% or higher and lower than 20%)	1 (Herbicidal ratio of 5% or higher and lower than 20%)	5 (Herbicidal ratio of 90% or more (almost completely withered))	0 (Herbicidal ratio of 5% or lower (almost no effect))	5 (Herbicidal ratio of 90% or more (almost completely withered))	5 (Herbicidal ratio of 90% or more (almost completely withered))	5 (Herbicidal ratio of 90% or more (almost completely withered))	5 (Herbicidal ratio of 90% or more (almost completely withered))	0 (Herbicidal ratio of 5% or lower (almost no effect))	0 (Herbicidal ratio of 5% or lower (almost no effect))	3 (Herbicidal ratio of 40% or higher and lower than 70%)	0 (Herbicidal ratio of 5% or lower (almost no effect))	5 (Herbicidal ratio of 90% or more (almost completely withered))	
CCc1cc(C#C[Si](C)(C)C)cc(C)c1C1=C(O)CC(CC(C)=NOC)C1=O (mixture of isomers) [6-008]	5 (Herbicidal ratio of 90% or more (almost completely withered))	5 (Herbicidal ratio of 90% or more (almost completely withered))	5 (Herbicidal ratio of 90% or more (almost completely withered))	5 (Herbicidal ratio of 90% or more (almost completely withered))	5 (Herbicidal ratio of 90% or more (almost completely withered))		5 (Herbicidal ratio of 90% or more (almost completely withered))	0 (Herbicidal ratio of 5% or lower (almost no effect))	3 (Herbicidal ratio of 40% or higher and lower than 70%)	5 (Herbicidal ratio of 90% or more (almost completely withered))	0 (Herbicidal ratio of 5% or lower (almost no effect))	5 (Herbicidal ratio of 90% or more (almost completely withered))	0 (Herbicidal ratio of 5% or lower (almost no effect))	5 (Herbicidal ratio of 90% or more (almost completely withered))	4 (Herbicidal ratio of 70% or higher and lower than 90%)	3 (Herbicidal ratio of 40% or higher and lower than 70%)	3 (Herbicidal ratio of 40% or higher and lower than 70%)	
CCOC(=O)C(C(=O)CC1CC1)C1CC(O)=C(c2c(C)cc(C)cc2C)C1=O (stereo not shown) [2-025]	3 (Herbicidal ratio of 40% or higher and lower than 70%)		5 (Herbicidal ratio of 90% or more (almost completely withered))	4 (Herbicidal ratio of 70% or higher and lower than 90%)	4 (Herbicidal ratio of 70% or higher and lower than 90%)	0 (Herbicidal ratio of 5% or lower (almost no effect))	5 (Herbicidal ratio of 90% or more (almost completely withered))	0 (Herbicidal ratio of 5% or lower (almost no effect))	4 (Herbicidal ratio of 70% or higher and lower than 90%)	0 (Herbicidal ratio of 5% or lower (almost no effect))	0 (Herbicidal ratio of 5% or lower (almost no effect))	4 (Herbicidal ratio of 70% or higher and lower than 90%)	0 (Herbicidal ratio of 5% or lower (almost no effect))	0 (Herbicidal ratio of 5% or lower (almost no effect))	0 (Herbicidal ratio of 5% or lower (almost no effect))	0 (Herbicidal ratio of 5% or lower (almost no effect))	5 (Herbicidal ratio of 90% or more (almost completely withered))	
